The results in this text go back to US12679807B2 (MERCK SHARP & DOHME LLC, priority 2020, dated 2026).

The assay concerns the target T1, GCS enzyme contained within Golgi preparations isolated from human A375 malignant melanoma skin cells (Homo sapiens, UniProt Q16739).
T1 construct: endogenous levels of GCS enzyme contained within Golgi preparations isolated from human A375 malignant melanoma skin cells; endogenous in cells; host or cells: A375 human malignant melanoma cells (crude Golgi preparation)
T1 sequence (Q16739 1-394): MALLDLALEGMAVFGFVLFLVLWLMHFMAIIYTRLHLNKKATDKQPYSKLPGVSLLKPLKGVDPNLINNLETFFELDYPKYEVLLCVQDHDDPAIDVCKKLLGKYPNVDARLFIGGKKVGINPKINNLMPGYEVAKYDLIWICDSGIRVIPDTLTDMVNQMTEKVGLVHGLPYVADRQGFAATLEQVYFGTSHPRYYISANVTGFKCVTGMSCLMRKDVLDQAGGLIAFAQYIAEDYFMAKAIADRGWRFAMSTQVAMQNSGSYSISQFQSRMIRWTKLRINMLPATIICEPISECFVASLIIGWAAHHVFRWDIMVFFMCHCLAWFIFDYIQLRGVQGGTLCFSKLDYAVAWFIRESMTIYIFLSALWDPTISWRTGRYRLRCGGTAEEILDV
Briefly: UDP-Glo glucosylceramide synthase biochemical assay. Conditions: crude Golgi preparation from A375 cells; C6 ceramide and UDP-glucose substrates; 20 h incubation at room temperature; UDP detected by luminescence. The method in brief:
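Endogenous enzyme in A375 Golgi preparations (1.5 μg total protein) was preincubated 30 min with compound, then reacted 20 h at room temperature with UDP-glucose and ceramide.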

For the compound `Cc1nnc(-c2ccc(-c3cccc4c3C(=O)N([C@H](C3CC3)C(C)(C)O)C4C)cc2)o1` (single isomer, unassigned) [Compound 62, (R or S)-2-((R)-1-Cyclopropyl-2-hydroxy-2-methylpropyl)-3-methyl-7-(4-(5-methyl-1,3,4-oxadiazol-2-yl)phenyl)isoindolin-1-one], the EC50 (commonly the midpoint of the concentration-response curve) came to 53 nM.
With `Cc1cnc2c(c1C(=O)Nc1cccc3c1C(=O)N(C(C1CC1)C1CC1)C3)OCO2` [Compound 117, N-(2-(dicyclopropylmethyl)-3-oxoisoindolin-4-yl)-6-methyl-[1,3]dioxolo[4,5-b]pyridine-7-carboxamide] the figure was 5.2 nM.
With `Cc1cnc2c(c1NCc1cccc3c1C(=O)N(C(C1CC1)C(C)(C)O)C3)OCO2` (single isomer, unassigned) [Compound 178, (R or S)-2-(1-Cyclopropyl-2-hydroxy-2-methylpropyl)-7-(((6-methyl-[1,3]dioxolo[4,5-b]pyridin-7-yl)amino)methyl)isoindolin-1-one] the figure was 21 nM.
With `CC(C)(O)C(C1CC1)N1Cc2cc(F)cc(-c3ccccc3OCC(F)(F)F)c2C1=O` (single isomer, unassigned) [Compound 23, (R or S)-2-(1-cyclopropyl-2-hydroxy-2-methylpropyl)-5-fluoro-7-(2-(2,2,2-trifluoroethoxy)phenyl) isoindolin-1-one] the figure was 0.41 nM; with `Cc1nnc(-c2ccc(-c3cccc4c3C(=O)N([C@H](C3CC3)C(C)(C)O)C4)cc2C)o1` [Compound 71, (R)-2-(1-cyclopropy1-2-hydroxy-2-methylpropyl)-7-(3-methyl-4-(5-methyl-1,3,4-oxadiazol-2-yl)phenyl)isoindolin-1-one], 0.84 nM.
`O=C(Nc1cccc2c1C(=O)N(C(C1CC1)C1CC1)C2)c1ccc(F)c2c1CCC2=O` [Compound 142, N-(2-(dicyclopropylmethyl)-3-oxoisoindolin-4-yl)-7-fluoro-1-oxo-2,3-dihydro-1H-indene-4-carboxamide] displayed an EC50 of 140 nM.
The figure for `CC(C)(O)[C@@H](C1CC1)N1Cc2cccc(-c3cnn(-c4ccncc4)c3)c2C1=O` [Compound 89, (R)-2-(1-cyclopropyl-2-hydroxy-2-methylpropyl)-7-(1-(pyridin-4-yl)-1H-pyrazol-4-yl)isoindolin-1-one] is 420 nM; for `CCc1nnc(-c2ccc(-c3cccc4c3C(=O)N([C@H](C3CC3)C(C)(C)O)C4)cc2)o1` [Compound 76, (R)-2-(1-cyclopropyl-2-hydroxy-2-methylpropyl)-7-(4-(5-ethyl-1,3,4-oxadiazol-2-yl)phenyl)isoindolin-1-one] it is 26 nM; for `COc1cc(-c2cccc3c2C(=O)N([C@H](C2CC2)C(C)(C)O)C3)ccc1-c1nnc(C)o1` [Compound 67, (R)-2-(1-cyclopropyl-2-hydroxy-2-methylpropyl)-7-(3-methoxy-4-(5-methyl-1,3,4-oxadiazol-2-yl)phenyl)isoindolin-1-one] it is 12 nM.
With `CCOc1ccccc1C(=O)Nc1cccc2c1C(=O)N([C@H](C)C(C)(C)O)C2` [Compound 99, (R)-2-Ethoxy-N-(2-(3-hydroxy-3-methylbutan-2-yl)-3-oxoisoindolin-4-yl)benzamide] the figure was 140 nM; with `COc1ccc(F)c(F)c1C(=O)Nc1cccc2c1C(=O)N(C(C1CC1)C(C)(C)O)C2` (single isomer, unassigned) [Compound 112, (R or S)-N-(2-(1-cyclopropyl-2-hydroxy-2-methylpropyl)-3-oxoisoindolin-4-yl)-2,3-difluoro-6-methoxybenzamide], 0.41 nM.
The figure for `CC(C)(O)C(C1CC1)N1Cc2cccc(/C=C/c3c(Cl)cnc4c3OCO4)c2C1=O` (single isomer, unassigned) [Compound 174, (R or S)-(E)-7-(2-(6-Chloro-[1,3]dioxolo[4,5-b]pyridin-7-yl)vinyl)-2-(1-cyclopropyl-2-hydroxy-2-methylpropyl)isoindolin-1-one] is 6.8 nM.
The compound `Cc1nnc(-c2ccc(-c3ccc(Cl)c4c3C(=O)N([C@H](C3CC3)C(C)(C)O)C4)cc2)o1` [Compound 38, (R)-4-chloro-2-(1-cyclopropyl-2-hydroxy-2-methylpropyl)-7-(4-(5-methyl-1,3,4-oxadiazol-2-yl)phenyl)isoindolin-1-one] came in with an EC50 of 0.55 nM.
The figure for `CC(C)(O)C(C1CC1)N1Cc2cncc(NC(=O)c3ccnc4c3CCC4)c2C1=O` (single isomer, unassigned) [Compound 151, (R or S)—N-(2-(1-Cyclopropyl-2-hydroxy-2-methylpropyl)-1-oxo-2,3-dihydro-1H-pyrrolo[3,4-c]pyridin-7-yl)-6,7-dihydro-5H-cyclopenta[b]pyridine-4-carboxamide] is 61 nM; for `CCOc1ccccc1C(=O)Nc1cccc2c1C(=O)N(CC1(O)CCC1)C2` [Compound 105, 2-ethoxy-N-(2-((1-hydroxycyclobutyl)methyl)-3-oxoisoindolin-4-yl)benzamide] it is 650 nM; for `COc1ncc(C)c(C(=O)Nc2cccc3c2C(=O)N(C(C2CC2)C(C)(C)O)C3)c1C` (single isomer, unassigned) [Compound 153, (R or S)-N-(2-(1-cyclopropyl-2-hydroxy-2-methylpropyl)-3-oxoisoindolin-4-yl)-2-methoxy-3,5-dimethylisonicotinamide] it is 29 nM.
The figure for `Cc1cnc2c(c1CCc1cccc3c1C(=O)N(C(C1CC1)C(C)(C)O)C3)OCO2` (single isomer, unassigned) [Compound 176, (R or S)-2-(1-Cyclopropyl-2-hydroxy-2-methylpropyl)-7-(2-(6-methyl-[1,3]dioxolo[4,5-b]pyridin-7-yl)ethyl)isoindolin-1-one] is 14 nM; for `CC(C)(O)C(C1CC1)N1Cc2cccc(OCc3c(Cl)cnc4c3OCO4)c2C1=O` (single isomer, unassigned) [Compound 179, (R or S)-7-((6-chloro-[1,3]dioxolo[4,5-b]pyridin-7-yl)methoxy)-2-(1-cyclopropyl-2-hydroxy-2-methylpropyl)isoindolin-1-one] it is 16 nM.
With `CC(C)(O)C(C1CC1)N1Cc2cccc(CCc3ccnc4c3CCC4)c2C1=O` (single isomer, unassigned) [Compound 173, (R or S)-2-(1-Cyclopropyl-2-hydroxy-2-methylpropyl)-7-(2-(6,7-dihydro-5H-cyclopenta[b]pyridin-4-yl)ethyl)isoindolin-1-one] the figure was 120 nM; with `C[C@@H](N1Cc2cccc(NC(=O)c3nc(C(F)(F)F)ccc3Cl)c2C1=O)C(C)(C)O` [Compound 129, (R)-3-chloro-N-(2-(3-hydroxy-3-methylbutan-2-yl)-3-oxoisoindolin-4-yl)-6-(trifluoromethyl)picolinamide], 38 nM; with `Cc1ccc(Cl)c(C(=O)Nc2cccc3c2C(=O)N([C@@H](CO)C(C)C)C3)c1F` [Compound 122, (R)-6-chloro-2-fluoro-N-(2-(1-hydroxy-3-methylbutan-2-yl)-3-oxoisoindolin-4-yl)-3-methylbenzamide], 18 nM.
`Cn1nc(-c2cccc3c2C(=O)N([C@H](C2CC2)C(C)(C)O)C3)c2ccccc21` [Compound 79, (R)-2-(1-cyclopropyl-2-hydroxy-2-methylpropyl)-7-(1-methyl-1H-indazol-3-yl)isoindolin-1-one] came in with an EC50 of 2.1 nM.
Take `CCOc1ccccc1C(=O)Nc1cccc2c1C(=O)N([C@@H](CO)C1CC1)C2` [Compound 102, (R)-N-(2-(1-cyclopropyl-2-hydroxyethyl)-3-oxoisoindolin-4-yl)-2-ethoxybenzamide]: the concentration giving a half-maximal response (EC50) came to 260 nM.
In the case of `O=C(Nc1cccc2c1C(=O)N(C(C1CC1)C1CC1)C2)c1c(Br)ccc2c1OCO2` [Compound 109, 5-Bromo-N-(2-(dicyclopropylmethyl)-3-oxoisoindolin-4-yl)-benzo[d][1,3]dioxole-4-carboxamide], the midpoint of the response, the EC50, lay at 2 nM.
The figure for `Cn1cc(-c2ccc(-c3ccc(Cl)c4c3C(=O)N([C@H](C3CC3)C(C)(C)O)C4)cc2)cn1` [Compound 37, (R)-4-chloro-2-(1-cyclopropyl-2-hydroxy-2-methylpropyl)-7-(4-(1-methyl-1H-pyrazol-4-yl)phenyl)isoindolin-1-one] is 0.24 nM.
With `Cc1cc(-c2ccc(-c3cc(F)cc4c3C(=O)N([C@H](C3CC3)C(C)(C)O)C4)cc2)on1` [Compound 26, (R)-2-(1-cyclopropyl-2-hydroxy-2-methylpropyl)-5-fluoro-7-(4-(3-methylisoxazol-5-yl)phenyl)isoindolin-1-one] the figure was 1 nM.
With `Cn1cc2c(C(=O)Nc3cc(F)cc4c3C(=O)N([C@H](C3CC3)C(C)(C)O)C4)cccc2n1` [Compound 161, (R)-N-(2-(1-cyclopropyl-2-hydroxy-2-methylpropyl)-6-fluoro-3-oxoisoindolin-4-yl)-2-methyl-2H-indazole-4-carboxamide] the figure was 9.1 nM; with `CC(C)(O)C(C1CC1)N1Cc2cccc(NC(=O)c3ccnc4c3CCC4)c2C1=O` (single isomer, unassigned) [Compound 158, (R or S)-N-(2-(1-cyclopropyl-2-hydroxy-2-methylpropyl)-3-oxoisoindolin-4-yl)-6,7-dihydro-5H-cyclopenta[b]pyridine-4-carboxamide], 1 nM.
